# Source: patent US6610725B1, “Fluorinated imidazoline benzodioxane, preparation and therapeutic uses thereof” (Pierre Fabre Medicament, priority 1999, dated 2003)
# Entries after “also recorded” stand apart in the source; their conditions may differ. Counter-ions that a name gives are not always drawn.
# Columns and labels:
# α1 or α2 receptors = conditions: from J. Med. Chem. publications; cited from earlier work
# α2-adrenergic receptors = test: Inhibition of the hypothermia induced with guanabenz; type: in vivo; conditions: for ED50 inhibition of hypothermia / Range of active doses, inhibition of hypothermia / ED50 normalization of hypothermia / Range of active doses, normalization of hypothermia: i.p.; for Range of active doses, normalization of hypothermia: normalization (return to normal temperature); for Number of doses inducing the inhibition of hypothermia in 100% of the animals: each dose separated by a factor of 4
# Experimental: The assessment of the biological activity of the compounds of the invention is also carried out in vivo by studying the inhibition of the hypothermia induced with a central α2-agonist such as guanabenz according to the protocol of S. C. Dilsaver, Pharmacol. Biochem. Behav., 45, 247, 1993.
# The inhibitory capacities are expressed as the ED50 which represent the doses producing a significant inhibition of the hypothermia induced with guanabenz on the one hand, and a normalization, that is to say a return to the normal temperature for the animal, before injection of guanabenz on the other hand. These values are obtained using the method of J. T. Litchfield and F. Wilcoxon (J. Pharmacol. Exp. Ther., 96, 99, 1949). The comparison is made between the 2-methoxy compounds, fluorinated in position 5 (dextrorotatory compound of Example 1) and nonfluorinated: (+) RX 821002, and between the 2-ethoxy, fluorinated in position 5 (dextrorotatory compound of Example 2) and nonfluorinated: (+) RX 811059.
# [1] = test system: memory deficit induced with scopolamine; test: Memory deficit induced with scopolamine (passive avoidance test); type: in vivo; conditions: rats; active doses over the range from 0.04 to 2.5 mg/kg
# From the text: In accordance with the cholinergic hypothesis of the phenomena of learning and memory, scopolamine has […] properties in animals and man. Its administration to a healthy person induces certain amnesia symptoms similar to those observed in Alzheimer's disease. It has been proposed that the scopolamine be used as an experimental pharmacological model of this pathology. The similarities between the memory deficits of Alzheimer's disease and those induced with scopolamine in rats have been published (P. Chopin et M. Briley, The effects of raubasine and dihydroergocristine on an […] deficit in passive avoidance learning in rats, J.Pharm.Pharmacol. 42, 375-376, 1990). Scopolamine reduces the capacity for acquisition, memorization and recall in a test of passive avoidance in rats. This involves measuring the reticence, after learning, that the animal has in entering a dark compartment, where it receives a mild electric shock. The administration of scopolamine suppresses this reticence, and the test compounds oppose the effect of scopolamine. The comparison of the products of the present invention is made with the known compound RX 821002, dextrorotatory enantiomer. The experimental protocol is that published by P. Chopin and M. Briley (Effects of four non-cholinergic cognitive enhancers in comparison with tacrine and galanthamine on scopolamine-induced amnesia in rats: Psychopharmacology, 106, 26-30, 1992).
# release of noradrenalin = test: Release of noradrenalin: normetanephrine level in frontal cortex; type: in vivo; conditions: mice, i.p., 0.01 to 2.5 mg/kg, 60 minutes, cortical tissue, HPLC
# Experimental: The level of normetanephrine, a noradrenalin metabolite, in the cerebral tissues is used as a measurement of the release of noradrenalin. Wood, P. L. and coll. Pharmacological Rev. 40, 163-187, (1988), and J. Neurochem. 48, 574-579, (1987)). The formation of normetanephrine, by the action of catechol O-methyltransferase takes place on the outside of the noradrenergic neurones and its measurement takes account of variations in the release of noradrenalin. This measurement is performed in the frontal cortex, a region innervated mainly by the locus coeruleus.
# The test compound is administered intraperitoneally to the mice, which are sacrificed after 60 minutes by irradiation with microwaves (to avoid any artefactual changes in the metabolite levels). After dissection, normetanephrine is assayed by HPLC on the cortical tissue extracts. At doses of 0.01 to 2.5 mg/kg, the assayed normetanephrine represents a level from 125 to 150% higher with the compound of Example 1, relative to (+) RX 821002, under the same conditions.
Compound,melting point [°C],ED50 inhibition of hypothermia (α2-adrenergic receptors) [mg/kg],"Range of active doses, inhibition of hypothermia (α2-adrenergic receptors) [µg/kg]",ED50 normalization of hypothermia (α2-adrenergic receptors) [mg/kg],"Range of active doses, normalization of hypothermia (α2-adrenergic receptors) [mg/kg]","Increase in the time taken to enter the dark compartment by the treated animals, relative to those receiving scopolamine alone (% amplitude of the effect) [1]",other results
COc1cc2c(cc1OC)OC(OC)(C1=NCCN1)CO2 (stereo not shown),–,–,–,–,–,–,Activity relative to unsubstituted idazoxan analog / α2-presynaptic antagonist activity (α1 or α2 receptors): only extremely marginal activity
"Fc1cccc2c1OCC(OCc1ccccc1)(C1=NCCN1)O2 (stereo not shown) (as salt: hydrochloride) (hydrate or solvate) [Example 8, 2-(5-Fluoro-2-benzyloxy-1,4-benzodioxan-2-yl)-imidazoline Hydrochloride]",218,–,–,–,–,–,–
"CCCOC1(C2=NCCN2)COc2c(F)cccc2O1 (stereo not shown) (as salt: hydrochloride) [Example 3, 2-(5-Fluoro-2-propoxy-1,4-benzodioxan-2-yl)-imidazoline Hydrochloride]",206,–,–,–,–,–,–
"CC(C)COC1(C2=NCCN2)COc2c(F)cccc2O1 (stereo not shown) (as salt: hydrochloride) [Example 5, 2-(5-Fluoro-2-isobutoxy-1,4-benzodioxan-2-yl)-imidazoline Hydrochloride]",206,–,–,–,–,–,–
"C=CCOC1(C2=NCCN2)COc2c(F)cccc2O1 (stereo not shown) (as salt: hydrochloride) [Example 7, 2-(5-Fluoro-2-allyloxy-1,4-benzodioxan-2-yl)-imidazoline Hydrochloride]",214,–,–,–,–,–,–
"CCOC1(C2=NCCN2)COc2c(F)cccc2O1 (stereo not shown) (as salt: salt) [Example 2, 2-(5-Fluoro-2-ethoxy-1,4-benzodioxan-2-yl)-2-imidazoline]",> 260,–,–,–,–,–,–
"CCOC1(C2=NCCN2)COc2ccccc2O1 (single isomer, unassigned; (+)) [(+) RX 811059, 2-ethoxy idazoxan]",–,0.08,40 to 10000,0.32,0.16 to 10,–,–
"COC1(C2=NCCN2)COc2ccccc2O1 (single isomer, unassigned; (+)) [(+) RX 821002, 2-methoxy idazoxan]",–,0.01,10 to 10000,0.05,0.04 to 2.5,not significantly active; also recorded: non-significant,Number of doses inducing the inhibition of hypothermia in 100% of the animals (α2-adrenergic receptors): 2 doses; Doses normalizing the hypothermia in 100% of the animals (α2-adrenergic receptors; list of single doses): none; ED50 normalization (per os) (α2-adrenergic receptors): 0.56 mg/kg; Range of active doses (per os) normalization (α2-adrenergic receptors): 0.16 to 10 mg/kg; Proportion of the animals in which hypothermia is normalized (maximum reached) (α2-adrenergic receptors; reached at only 2 doses): 80%
"COC1(C2=NCCN2)COc2c(F)cccc2O1 (stereo not shown) [Dextrorotatory compound of Example 1, 2-(5-Fluoro-2-methoxy-1,4-benzodioxan-2-yl)-2-imidazoline]",–,0.003,2.5 to 40000,0.02,0.0025 to 10,201%,Number of doses inducing the inhibition of hypothermia in 100% of the animals (α2-adrenergic receptors): 6 doses; Number of doses normalizing the hypothermia in 100% of the animals (α2-adrenergic receptors; in vivo): 3 doses; ED50 normalization (per os) (α2-adrenergic receptors): 0.22 mg/kg; Range of active doses (per os) normalization (α2-adrenergic receptors): 0.04 to 40 mg/kg
"CCOC1(C2=NCCN2)COc2c(F)cccc2O1 (stereo not shown) [Dextrorotatory compound of Example 2, 2-(5-Fluoro-2-ethoxy-1,4-benzodioxan-2-yl)-2-imidazoline]",–,0.02,2.5 to 40000,0.16,0.01 to 10,198%,–
COc1cc2c(cc1OC)C(=O)C(CC1CCN(Cc3ccccc3)CC1)C2 (stereo not shown) [Donepezil],–,–,–,–,–,67%,–
"COC1(C2=NCCN2)COc2c(F)cccc2O1 (stereo not shown) [Example 1, 2-(5-Fluoro-2-methoxy-1,4-benzodioxan-2-yl)-2-imidazoline]",–,–,–,–,–,–,Assayed normetanephrine level relative to (+) RX 821002 (release of noradrenalin): 125 to 150 % higher
Nc1c2c(nc3ccccc13)CCCC2 [Tacrine],–,–,–,–,–,191%,–
